Data reported in patent publication US20130096119A1, “Isoquinolin-3-Ylurea Derivatives” (priority 2010, published 2013).
Converted amounts (≈) assume the structure as drawn.

What follows are compounds tested on S. pneumoniae ATCC 49619 (assay: Minimal inhibitory concentration (MIC) by microdilution method (CLSI M7-A7)). Conditions: Streptococcus pneumoniae, ATCC49619, cation-adjusted Mueller-Hinton Broth supplemented with 3% (v/v) lysed horse blood.
Format: cell-based, Streptococcus pneumoniae
Outline: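 For S. pneumoniae, cation-adjusted Mueller-Hinton broth carried 3% (v/v) lysed horse blood; MICs (mg/l) were read by CLSI M7-A7 microdilution.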

Point of comparison: `CCNC(=O)Nc1cc2cc(-c3cccnc3F)cc(C)c2cn1` [Example 100, 1-ethyl-3-[6-(2-fluoro-pyridin-3-yl)-8-methyl-isoquinolin-3-yl]-urea], MIC 2 µg/mL (≈ 6.17 µM). Against it:
- CCNC(=O)Nc1cc2cccc(Nc3cccc(CC(N)=O)c3)c2cn1.Cl [Example 255, 2-{3-[3-(3-ethyl-ureido)-isoquinolin-8-ylamino]-phenyl}-acetamide hydrochloride] — 2-fold higher, 4 µg/mL
- CCNC(=O)Nc1cc2cc(NCCOCc3ccccc3)cc(C)c2cn1.Cl [Example 132, 1-[6-(2-benzyloxy-ethylamino)-8-methyl-isoquinolin-3-yl]-3-ethyl-urea hydrochloride] — 4-fold higher, 8 µg/mL
- CCNC(=O)Nc1cc2cc(NCC(C)C)cc(C)c2cn1.Cl [Example 136, 1-ethyl-3-(6-isobutylamino-8-methyl-isoquinolin-3-yl)-urea hydrochloride] — 8-fold higher, 16 µg/mL
- CCNC(=O)Nc1cc2c(-c3cccnc3F)ccc(C)c2cn1 [Example 66, 1-ethyl-3-[5-(2-fluoro-pyridin-3-yl)-8-methyl-isoquinolin-3-yl]-urea] — 2-fold higher, 4 µg/mL (≈ 12.3 µM)
- CCNC(=O)Nc1cc2cccc(Nc3nnc(C)o3)c2cn1 [Example 154, 1-ethyl-3-[8-(5-methyl-[1,3,4]oxadiazol-2-ylamino)-isoquinolin-3-yl]-urea] — 4-fold higher, 8 µg/mL (≈ 25.6 µM)
- CCNC(=O)Nc1cc2cccc(Cn3ccnc3C)c2cn1 [Example 297, 1-ethyl-3-[8-(2-methyl-imidazol-1-ylmethyl)-isoquinolin-3-yl]-urea] — 2-fold higher, 4 µg/mL (≈ 12.9 µM)
- CCNC(=O)Nc1cc2cccc(Nc3ccncn3)c2cn1 [Example 151, 1-ethyl-3-[8-(pyrimidin-4-ylamino)-isoquinolin-3-yl]-urea] — 2-fold higher, 4 µg/mL (≈ 13 µM)
- CCNC(=O)Nc1cc2cccc(Nc3ccc(C)c(C(=O)OC)c3)c2cn1 [Example 264, 5-[3-(3-ethyl-ureido)-isoquinolin-8-ylamino]-2-methyl-benzoic acid methyl ester] — 4-fold higher, 8 µg/mL (≈ 21.1 µM)
- CCNC(=O)Nc1cc2cc(NCc3cccc(Cn4cncn4)c3)cc(C)c2cn1 [Example 188, 1-{6-[(3-((1H-1,2,4-triazol-1-yl)methyl)benzyl)amino]-8-methylisoquinolin-3-yl}-3-ethylurea] — 4-fold higher, 8 µg/mL (≈ 19.3 µM)
- CCNC(=O)Nc1cc2cccc(Cn3ccnn3)c2cn1 [Example 298, 1-ethyl-3-(8-[1,2,3]triazol-1-ylmethyl-isoquinolin-3-yl)-urea] — 2-fold higher, 4 µg/mL (≈ 13.5 µM)
- CCNC(=O)Nc1cc2c(-c3ccncc3)ccc(Nc3cccnc3)c2cn1 [Example 227, 1-ethyl-3-[5-pyridin-4-yl-8-(pyridin-3-ylamino)-isoquinolin-3-yl]-urea] — 16-fold lower, 0.125 µg/mL (≈ 0.325 µM)
- CCNC(=O)Nc1cc2c(-c3cccc(S(N)(=O)=O)c3)ccc(C)c2cn1 [Example 13, 3-[3-(3-ethyl-ureido)-8-methyl-isoquinolin-5-yl]-benzenesulfonamide] — the same, 2 µg/mL (≈ 5.2 µM)
- CCNC(=O)Nc1cc2cccc(CNc3ccc(OC)nc3)c2cn1.Cl [Example 302, 1-ethyl-3-{8-[(6-methoxy-pyridin-3-ylamino)-methyl]-isoquinolin-3-yl}-urea hydrochloride] — 4-fold higher, 8 µg/mL
- CCNC(=O)Nc1cc2cccc(NC(=O)c3cnn[nH]3)c2cn1.Cl [Example 183, 3H-[1,2,3]triazole-4-carboxylic acid [3-(3-ethyl-ureido)-isoquinolin-8-yl]-amide hydrochloride] — 2-fold higher, 4 µg/mL
- CCNC(=O)Nc1cc2cccc(Nc3cccc(C(=O)O)c3)c2cn1 [Example 198, 3-[3-(3-ethyl-ureido)-isoquinolin-8-ylamino]-benzoic acid] — 2-fold lower, 1 µg/mL (≈ 2.85 µM)
- CCNC(=O)Nc1cc2cc(-c3cccc(S(N)(=O)=O)c3)cc(C)c2cn1 [Example 22, 3-[3-(3-ethyl-ureido)-8-methyl-isoquinolin-6-yl]-benzenesulfonamide] — 4-fold lower, 0.5 µg/mL (≈ 1.3 µM)
- CCNC(=O)Nc1cc2cc(-c3cccc(O)c3)cc(C)c2cn1 [Example 20, 1-ethyl-3-[6-(3-hydroxy-phenyl)-8-methyl-isoquinolin-3-yl]-urea] — 4-fold lower, 0.5 µg/mL (≈ 1.56 µM)
- CCNC(=O)Nc1cc2cccc(Nc3ccc(C#N)cc3)c2cn1 [Example 174, 1-[8-(4-cyano-phenylamino)-isoquinolin-3-yl]-3-ethyl-urea] — the same, 2 µg/mL (≈ 6.04 µM)
- CCNC(=O)Nc1cc2cc(-c3ccsc3)cc(C)c2cn1 [Example 93, 1-ethyl-3-(8-methyl-6-thiophen-3-yl-isoquinolin-3-yl)-urea] — the same, 2 µg/mL (≈ 6.42 µM)
- CCNC(=O)Nc1cc2c(-c3ccnnc3)ccc(C)c2cn1 [Example 279, 1-ethyl-3-(8-methyl-5-pyridazin-4-yl-isoquinolin-3-yl)-urea] — 2-fold lower, 1 µg/mL (≈ 3.25 µM)
- CCNC(=O)Nc1cc2cccc(Nc3ccc(CC(=O)O)cc3)c2cn1 [Example 205, {4-[3-(3-ethyl-ureido)-isoquinolin-8-ylamino]phenyl}-acetic acid] — 2-fold higher, 4 µg/mL (≈ 11 µM)
- CCNC(=O)Nc1cc2cc(NCc3cccc(C(=O)O)c3)cc(C)c2cn1.Cl [Example 128, 3-{[3-(3-ethyl-ureido)-8-methyl-isoquinolin-6-ylamino]-methyl}-benzoic acid hydrochloride] — 4-fold higher, 8 µg/mL
- CCCNc1cc(Nc2cccnc2)c2cnc(NC(=O)NCC)cc2c1 [Example 238, 1-ethyl-3-[6-propylamino-8-(pyridin-3-ylamino)-isoquinolin-3-yl]-urea] — 4-fold lower, 0.5 µg/mL (≈ 1.37 µM)
- CCNC(=O)Nc1cc2cc(-c3cn[nH]c3)cc(C)c2cn1 [Example 28, 1-ethyl-3-[8-methyl-6-(1H-pyrazol-4-yl)-isoquinolin-3-yl]-urea] — the same, 2 µg/mL (≈ 6.77 µM)
- CCNC(=O)Nc1cc2c(-c3ccncc3)ccc(C)c2cn1 [Example 61, 1-ethyl-3-(8-methyl-5-pyridin-4-yl-isoquinolin-3-yl)-urea] — 2-fold lower, 1 µg/mL (≈ 3.26 µM)
- CCNC(=O)Nc1cc2cccc(Nc3cccnc3OC)c2cn1.Cl [Example 291, 1-ethyl-3-[8-(2-methoxy-pyridin-3-ylamino)-isoquinolin-3-yl]-urea hydrochloride] — 2-fold higher, 4 µg/mL
- CCNC(=O)Nc1cc2cccc(COc3ccc(C)cn3)c2cn1.Cl [Example 257, 1-ethyl-3-[8-(5-methyl-pyridin-2-yloxymethyl)-isoquinolin-3-yl]-urea hydrochloride] — 4-fold higher, 8 µg/mL
- CCNC(=O)Nc1cc2c(-c3ccnc(N)c3)ccc(Nc3cccnc3)c2cn1 [Example 233, 1-[5-(2-amino-pyridin-4-yl)-8-(pyridin-3-ylamino)-isoquinolin-3-yl]-3-ethyl-urea] — 4-fold lower, 0.5 µg/mL (≈ 1.25 µM)
- CCNC(=O)Nc1cc2cccc(NC(=O)c3ccccc3)c2cn1 [Example 70, N-[3-(3-ethyl-ureido)-isoquinolin-8-yl]-benzamide] — 8-fold higher, 16 µg/mL (≈ 47.8 µM)
- CCNC(=O)Nc1cc2cccc(Cn3ccnc3C(=O)O)c2cn1 [Example 294, 1-[3-(3-ethyl-ureido)-isoquinolin-8-ylmethyl]-1H-imidazole-2-carboxylic acid] — 2-fold higher, 4 µg/mL (≈ 11.8 µM)
- CCNC(=O)Nc1cc2c(-c3ccc4nccn4c3)ccc(C)c2cn1 [Example 7, 1-ethyl-3-(5-imidazo[1,2-a]pyridin-6-yl-8-methyl-isoquinolin-3-yl)-urea] — 2-fold higher, 4 µg/mL (≈ 11.6 µM)
- CCNC(=O)Nc1cc2c(CNC)ccc(Nc3cccc(C(=O)O)c3)c2cn1 [Example 272, 3-{[3-(3-ethyl-ureido)-5-[(methylamino)methyl]-isoquinolin-8-yl]amino}-benzoic acid] — 4-fold higher, 8 µg/mL (≈ 20.3 µM)
- CCNC(=O)Nc1cc2cc(-c3ccc(C(=O)N(C)C)cc3)cc(C)c2cn1 [Example 24, 4-[3-(3-ethyl-ureido)-8-methyl-isoquinolin-6-yl]-N,N-dimethyl-benzamide] — 8-fold lower, 0.25 µg/mL (≈ 0.664 µM)
- CCNC(=O)Nc1cc2cc(-c3ccccc3C(=O)OCC)cc(C)c2cn1 [Example 85, 2-[3-(3-ethyl-ureido)-8-methyl-isoquinolin-6-yl]-benzoic acid ethyl ester] — 8-fold higher, 16 µg/mL (≈ 42.4 µM)
- CCNC(=O)Nc1cc2c(-c3cccc(CN)c3)ccc(Nc3cccnc3)c2cn1 [Example 232, 1-(5-(3-(aminomethyl)phenyl)-8-(pyridin-3-ylamino)isoquinolin-3-yl)-3-ethylurea] — the same, 2 µg/mL (≈ 4.85 µM)
- CCNC(=O)Nc1cc2c(-c3cn(C)cn3)ccc(C)c2cn1.Cl [Example 283, 1-ethyl-3-[8-methyl-5-(1-methyl-1H-imidazol-4-yl)-isoquinolin-3-yl]-urea hydrochloride] — 4-fold higher, 8 µg/mL
- CCNC(=O)Nc1cc2cc(-c3ccc(OC)nc3)cc(C)c2cn1 [Example 89, 1-ethyl-3-[6-(6-methoxy-pyridin-3-yl)-8-methyl-isoquinolin-3-yl]-urea] — 4-fold lower, 0.5 µg/mL (≈ 1.49 µM)
- CCNC(=O)Nc1cc2cccc(Nc3ccc(CC(=O)NC)cc3)c2cn1.Cl [Example 207, 2-{4-[3-(3-ethyl-ureido)-isoquinolin-8-ylamino]phenyl}-N-methyl-acetamide hydrochloride] — the same, 2 µg/mL
- CCNC(=O)Nc1cc2c(F)c(-c3ccccn3)cc(C)c2cn1 [Example 48, 1-ethyl-3-(5-fluoro-8-methyl-6-pyridin-2-yl-isoquinolin-3-yl)-urea] — 2-fold lower, 1 µg/mL (≈ 3.08 µM)
- CCNC(=O)Nc1cc2cccc(Nc3cccnc3)c2cn1 [Example 145, 1-ethyl-3-[8-(pyridin-3-ylamino)-isoquinolin-3-yl]-urea] — 2-fold lower, 1 µg/mL (≈ 3.25 µM)
- CCNC(=O)Nc1cc2cc(NCC3CC3)cc(C)c2cn1.Cl [Example 133, 1-{6-[(cyclopropylmethyl)-amino]-8-methyl-isoquinolin-3-yl}-3-ethyl-urea hydrochloride] — 8-fold higher, 16 µg/mL
- CCNC(=O)Nc1cc2c(-c3cccnn3)ccc(C)c2cn1.Cl [Example 282, 1-ethyl-3-(8-methyl-5-pyridazin-3-yl-isoquinolin-3-yl)-urea hydrochloride] — 4-fold higher, 8 µg/mL
- CCNC(=O)Nc1cc2cc(-c3cscc3C)cc(C)c2cn1 [Example 80, 1-ethyl-3-[8-methyl-6-(4-methyl-thiophen-3-yl)-isoquinolin-3-yl]-urea] — 8-fold higher, 16 µg/mL (≈ 49.2 µM)

Same assay, conditions: cation-adjusted Mueller-Hinton Broth supplemented with 3% (v/v) lysed horse blood

With `CCNC(=O)Nc1cc2cc(C(NC(C)=O)c3ccccc3)cc(C)c2cn1` (stereo not drawn) [Example 17, N-{1-[3-(3-ethyl-ureido)-8-methyl-isoquinolin-6-yl]-benzyl}-acetamide] the “MIC for S. pneumoniae ATCC 49619” value was 1 µg/mL.
